The test system of assay [1] is Klebsiella pneumoniae. Kind of assay: Antibacterial activity against Klebsiella pneumoniae MTCC 109 after 24 hr by paper disk diffusion method. Type of assay: functional.
The subject of assay [2] is Staphylococcus aureus. Kind of assay: Antibacterial activity against Staphylococcus aureus MTCC 96 after 24 hr by paper disk diffusion method. Type of assay: functional.
Assay [3] concerns Staphylococcus aureus. Kind of assay: Antibacterial activity against Staphylococcus aureus MTCC 96 after 24 hr by agar streak dilution method. Type of assay: functional. Conditions: MTCC 96, 24 h.
The test system of assay [4] is Candida albicans. Kind of assay: Antifungal activity against Candida albicans MTCC 183 after 24 hr by paper disk diffusion method. Format: functional.
The test system of assay [5] is Bacillus cereus. Briefly: Antibacterial activity against Bacillus cereus MTCC 619 after 24 hr by agar streak dilution method. The conditions noted are these: MTCC 619, 24 h. Type of assay: functional.
Assay [6] deals with Klebsiella pneumoniae. Briefly: Antibacterial activity against Klebsiella pneumoniae MTCC 109 after 24 hr by agar streak dilution method. Conditions: MTCC 109, 24 h. Format: functional.
For assay [7], the system named is Bacillus cereus. Kind of assay: Antibacterial activity against Bacillus cereus MTCC 619 after 24 hr by paper disk diffusion method. Type of assay: functional. A general note: A growth-free zone around the sample is the usual read-out of agar diffusion tests.
In assay [8] the test system is Proteus vulgaris. Kind of assay: Antibacterial activity against Proteus vulgaris MTCC 1771 after 24 hr by agar streak dilution method. Format: functional. The conditions noted are these: MTCC 1771, 24 h.
Assay [9] concerns Pseudomonas aeruginosa. Briefly: Antibacterial activity against Pseudomonas aeruginosa MTCC 741 after 24 hr by agar streak dilution method. Type of assay: functional. The conditions noted are these: MTCC 741, 24 h.
Assay [10] deals with Escherichia coli. Briefly: Antibacterial activity against Escherichia coli MTCC 739 after 24 hr by agar streak dilution method. Type of assay: functional. Conditions: MTCC 739, 24 h.
Assay [11] concerns Salmonella typhi. Briefly: Antibacterial activity against Salmonella enterica subsp. enterica serovar Typhi MTCC 733 after 24 hr by agar streak dilution method. The conditions noted are these: MTCC 733, 24 h. Format: functional.
The test system of assay [12] is Proteus vulgaris. Briefly: Antibacterial activity against Proteus vulgaris MTCC 1771 after 24 hr by paper disk diffusion method. Type of assay: functional.
Assay [13] relates to Pseudomonas aeruginosa. Briefly: Antibacterial activity against Pseudomonas aeruginosa MTCC 741 after 24 hr by paper disk diffusion method. Type of assay: functional.
Assay [14] has as its system Aspergillus niger. Kind of assay: Antifungal activity against Aspergillus niger MTCC 282 after 48 hr by agar streak dilution method. Format: functional. Conditions: MTCC 282, 48 h.
The subject of assay [15] is Aspergillus niger. Briefly: Antifungal activity against Aspergillus niger MTCC 282 after 24 hr by paper disk diffusion method. Type of assay: functional.
Assay [16] has as its system Candida albicans. Kind of assay: Antifungal activity against Candida albicans MTCC 183 after 48 hr by agar streak dilution method. Format: functional. Conditions: MTCC 183, 48 h.
The test system of assay [17] is Escherichia coli. Briefly: Antibacterial activity against Escherichia coli MTCC 739 after 24 hr by paper disk diffusion method. Format: functional.
Assay [18] concerns Shigella flexneri. Kind of assay: Antibacterial activity against Shigella flexneri MTCC 1457 after 24 hr by paper disk diffusion method. Type of assay: functional.
Assay [19] deals with Salmonella typhi. Kind of assay: Antibacterial activity against Salmonella enterica subsp. enterica serovar Typhi MTCC 733 after 24 hr by paper disk diffusion method. Format: functional.
Assay [20] has as its system Shigella flexneri. Kind of assay: Antibacterial activity against Shigella flexneri MTCC 1457 after 24 hr by agar streak dilution method. Format: functional. Conditions: MTCC 1457, 24 h.
Assay [21] concerns Pseudomonas aeruginosa. Kind of assay: microbe, parasite or virus in culture. The conditions noted are these: MTCC 741, 24 h, read-out: IZ.
Description: Antibacterial activity against Pseudomonas aeruginosa MTCC 741 at 50 ug/disk after 24 hr by paper disk diffusion method
For assay [22], the system named is Staphylococcus aureus. Kind of assay: Antibacterial activity against Staphylococcus aureus MTCC 96 at 50 ug/disc after 24 hr by paper disk diffusion method. The conditions noted are these: MTCC 96, 24 h, read-out: IZ.
Assay [23] has as its system Escherichia coli. Briefly: microbe, parasite or virus in culture. Conditions: MTCC 739, 24 h, read-out: IZ.
Description: Antibacterial activity against Escherichia coli MTCC 739 at 50 ug/disk after 24 hr by paper disk diffusion method
Assay [24] concerns Proteus vulgaris. Briefly: Antibacterial activity against Proteus vulgaris MTCC 1771 at 50 ug/disk after 24 hr by paper disk diffusion method. Format: functional. The conditions noted are these: MTCC 1771, 24 h, read-out: IZ.
The subject of assay [25] is Shigella flexneri. Kind of assay: Antibacterial activity against Shigella flexneri MTCC 1457 at 50 ug/disc after 24 hr by paper disk diffusion method. Conditions: MTCC 1457, 24 h, read-out: IZ. Type of assay: functional.
For assay [26], the system named is Salmonella typhi. Briefly: Antibacterial activity against Salmonella enterica subsp. enterica serovar Typhi MTCC 733 at 50 ug/disk after 24 hr by paper disk diffusion method. The conditions noted are these: MTCC 733, 24 h, read-out: IZ. Type of assay: functional.
For assay [27], the system named is Bacillus cereus. Kind of assay: Antibacterial activity against Bacillus cereus MTCC 619 at 50 ug/disk after 24 hr by paper disk diffusion method. Conditions: MTCC 619, 24 h, read-out: IZ. Type of assay: functional.
In assay [28] the test system is Klebsiella pneumoniae. Kind of assay: microbe, parasite or virus in culture. Conditions: MTCC 109, 24 h, read-out: IZ.
Description: Antibacterial activity against Klebsiella pneumoniae MTCC 109 at 50 ug/disk after 24 hr by paper disk diffusion method
Assay [29] concerns Aspergillus niger. Kind of assay: Antifungal activity against Aspergillus niger MTCC 282 at 50 ug/disk after 24 hr by paper disk diffusion method. Type of assay: functional. The conditions noted are these: MTCC 282, 24 h, read-out: IZ.
Assay [30] concerns Candida albicans. Kind of assay: Antifungal activity against Candida albicans MTCC 183 at 50 ug/disk after 24 hr by paper disk diffusion method. Type of assay: functional. Conditions: MTCC 183, 24 h, read-out: IZ.

Values after ≈ are worked out from the molar mass of the structure shown.

The term MIC denotes the lowest concentration found to suppress growth.

In the case of `Cn1c(=O)cc(Oc2nc(Nc3ccc(C#N)cc3)nc(NC3CC3)n2)c2ccccc21`, the “inhibition zone (IZ)” value in the assay with Klebsiella pneumoniae [1] was 11 mm; in the assay on Staphylococcus aureus [2], below 5 mm; in the assay on Candida albicans [4], 8 mm; with Bacillus cereus [7], 11 mm; in the assay with Proteus vulgaris [12] it was 8 mm; in the assay on Pseudomonas aeruginosa [13], 6 mm. Besides, the “inhibition zone (IZ)” value with Aspergillus niger [15] is 10 mm; in the assay on Escherichia coli [17], 7 mm; in the assay on Shigella flexneri [18], below 5 mm; in the assay on Salmonella typhi [19], below 5 mm. Further, the MIC in the assay with Staphylococcus aureus [3] came out at 50 µg/mL (≈ 118 µM); with Bacillus cereus [5], 25 µg/mL (≈ 58.8 µM); against Klebsiella pneumoniae [6], 25 µg/mL (≈ 58.8 µM); against Proteus vulgaris [8], 50 µg/mL (≈ 118 µM); with Pseudomonas aeruginosa [9], 50 µg/mL (≈ 118 µM); against Escherichia coli [10] it was 50 µg/mL (≈ 118 µM). Besides, the MIC in the assay on Salmonella typhi [11], against Aspergillus niger [14], against Candida albicans [16] and in the assay on Shigella flexneri [20] was 50 µg/mL (≈ 118 µM) throughout.

`COc1ccc2[nH]cc(CCNc3nc(Nc4ccc(C#N)cc4)nc(Oc4cc(=O)n(C)c5ccccc45)n3)c2c1`: the “inhibition zone (IZ)” value in the assay on Klebsiella pneumoniae [1] was 10 mm; with Staphylococcus aureus [2] it was 15 mm; in the assay with Candida albicans [4], 15 mm; in the assay on Bacillus cereus [7], 13 mm; with Proteus vulgaris [12], 6 mm; in the assay on Pseudomonas aeruginosa [13] it was 9 mm. Further, the “inhibition zone (IZ)” value was 12 mm in the assay on Aspergillus niger [15], 9 mm with Escherichia coli [17], 12 mm with Shigella flexneri [18] and below 5 mm in the assay on Salmonella typhi [19]. For the same compound, the MIC with Staphylococcus aureus [3] was found to be 6.25 µg/mL (≈ 11.2 µM); in the assay with Bacillus cereus [5], 25 µg/mL (≈ 44.8 µM); in the assay with Klebsiella pneumoniae [6] it was 50 µg/mL (≈ 89.5 µM); in the assay on Proteus vulgaris [8], 50 µg/mL (≈ 89.5 µM); against Pseudomonas aeruginosa [9], 50 µg/mL (≈ 89.5 µM); against Escherichia coli [10] it was 50 µg/mL (≈ 89.5 µM). For the same compound, the MIC in the assay with Salmonella typhi [11] came to 50 µg/mL (≈ 89.5 µM); against Aspergillus niger [14], 25 µg/mL (≈ 44.8 µM); in the assay with Candida albicans [16], 25 µg/mL (≈ 44.8 µM); against Shigella flexneri [20], 50 µg/mL (≈ 89.5 µM).

As for `O=C(O)c1cn(C2CC2)c2cc(N3CCNCC3)c(F)cc2c1=O` [CIPROFLOXACIN], the zone of inhibition at 50 µg/disc with Pseudomonas aeruginosa [21] came out at 15 mm; with Staphylococcus aureus [22], 17 mm; in the assay on Escherichia coli [23] it was 18 mm; in the assay on Proteus vulgaris [24], 17 mm; in the assay with Shigella flexneri [25], 17 mm; in the assay with Salmonella typhi [26], 16 mm. Also, the zone of inhibition at 50 µg/disc in the assay with Bacillus cereus [27] and with Klebsiella pneumoniae [28] was 16 mm throughout. The minimum inhibitory concentration (MIC) in the assay with Staphylococcus aureus [3], against Bacillus cereus [5], with Klebsiella pneumoniae [6], against Proteus vulgaris [8], in the assay on Pseudomonas aeruginosa [9] and with Salmonella typhi [11] was 1 µg/mL (≈ 3.02 µM) each time. For the same compound, the MIC against Shigella flexneri [20] was at most 3 µg/mL.

For the compound `Cn1c(=O)cc(Oc2nc(NCCc3cccs3)nc(Nc3ccc(C#N)cc3)n2)c2ccccc21`, the “inhibition zone (IZ)” value is 10 mm in the assay on Klebsiella pneumoniae [1]; 15 mm with Staphylococcus aureus [2]; 15 mm with Candida albicans [4]; 13 mm in the assay with Bacillus cereus [7]; 7 mm with Proteus vulgaris [12]; 10 mm with Pseudomonas aeruginosa [13]. Moreover, the “inhibition zone (IZ)” value with Aspergillus niger [15] is reported as 13 mm; with Escherichia coli [17], 10 mm; in the assay on Shigella flexneri [18], 14 mm; in the assay on Salmonella typhi [19], 12 mm. In addition, the MIC came to 6.25 µg/mL (≈ 12.6 µM) in the assay with Staphylococcus aureus [3]; 25 µg/mL (≈ 50.4 µM) in the assay on Bacillus cereus [5]; 50 µg/mL (≈ 101 µM) in the assay on Klebsiella pneumoniae [6]; 50 µg/mL (≈ 101 µM) against Proteus vulgaris [8]; 50 µg/mL (≈ 101 µM) with Pseudomonas aeruginosa [9]; 50 µg/mL (≈ 101 µM) against Escherichia coli [10]. Further, the MIC was determined as 50 µg/mL (≈ 101 µM) against Salmonella typhi [11], 25 µg/mL (≈ 50.4 µM) with Aspergillus niger [14], 25 µg/mL (≈ 50.4 µM) against Candida albicans [16] and 25 µg/mL (≈ 50.4 µM) in the assay on Shigella flexneri [20].

On to `CC(=O)N1CCN(c2ccc(OCC3COC(Cn4ccnc4)(c4ccc(Cl)cc4Cl)O3)cc2)CC1` (centres undefined) [KETOCONAZOLE], for which the zone of inhibition at 50 µg/disc worked out at 16 mm in the assay on Aspergillus niger [29] and 17 mm with Candida albicans [30]. In addition, the figures for the MIC against Aspergillus niger [14] and against Candida albicans [16] were at most 3 µg/mL and 1 µg/mL (≈ 1.88 µM), respectively.

For the compound `Cn1c(=O)cc(Oc2nc(Nc3ccc(C#N)cc3)nc(NC3CCCCC3)n2)c2ccccc21`, the “inhibition zone (IZ)” value in the assay with Klebsiella pneumoniae [1] was 13 mm; with Staphylococcus aureus [2] it was 14 mm; with Candida albicans [4], 10 mm; with Bacillus cereus [7], 10 mm; with Proteus vulgaris [12], 7 mm; with Pseudomonas aeruginosa [13] it was below 5 mm. Besides, the “inhibition zone (IZ)” value in the assay with Aspergillus niger [15] is recorded as 9 mm; in the assay with Escherichia coli [17], 8 mm; in the assay with Shigella flexneri [18], 9 mm; in the assay on Salmonella typhi [19], below 5 mm. The MIC in the assay on Staphylococcus aureus [3] was determined as 6.25 µg/mL (≈ 13.4 µM); against Bacillus cereus [5], 50 µg/mL (≈ 107 µM); against Klebsiella pneumoniae [6], 12.5 µg/mL (≈ 26.7 µM); in the assay with Proteus vulgaris [8], 50 µg/mL (≈ 107 µM); with Pseudomonas aeruginosa [9], 50 µg/mL (≈ 107 µM); against Escherichia coli [10], 50 µg/mL (≈ 107 µM). For the same compound, the MIC against Salmonella typhi [11], in the assay on Aspergillus niger [14], in the assay on Candida albicans [16] and in the assay with Shigella flexneri [20] was 50 µg/mL (≈ 107 µM) each time.

On to `Cn1c(=O)cc(Oc2nc(NCc3ccccc3)nc(Nc3ccc(C#N)cc3)n2)c2ccccc21`, for which the “inhibition zone (IZ)” value in the assay with Klebsiella pneumoniae [1] is on record as 15 mm; in the assay on Staphylococcus aureus [2] it was 13 mm; with Candida albicans [4], below 5 mm; in the assay with Bacillus cereus [7], 10 mm; with Proteus vulgaris [12], below 5 mm; in the assay with Pseudomonas aeruginosa [13], 7 mm. Also, the “inhibition zone (IZ)” value with Aspergillus niger [15] is below 5 mm; in the assay on Escherichia coli [17] it was 9 mm; with Shigella flexneri [18], 6 mm; in the assay on Salmonella typhi [19], below 5 mm. In addition, the MIC came to 12.5 µg/mL (≈ 26.3 µM) in the assay on Staphylococcus aureus [3]; 50 µg/mL (≈ 105 µM) against Bacillus cereus [5]; 12.5 µg/mL (≈ 26.3 µM) in the assay on Klebsiella pneumoniae [6]; 50 µg/mL (≈ 105 µM) in the assay with Proteus vulgaris [8]; 50 µg/mL (≈ 105 µM) in the assay on Pseudomonas aeruginosa [9]; 50 µg/mL (≈ 105 µM) against Escherichia coli [10]. Also, the MIC with Salmonella typhi [11] is 50 µg/mL (≈ 105 µM); against Aspergillus niger [14] it was above 50 µg/mL; in the assay with Candida albicans [16], above 50 µg/mL; in the assay with Shigella flexneri [20], 50 µg/mL (≈ 105 µM).

Source of the values: ChEMBL document CHEMBL3046451, “Design, synthesis, characterization, and in vitro antimicrobial action of novel trisubstituted s-triazines” (2012).
